In US12419891B2, “Compositions for the treatment of pathogenic- and/or chemical-induced lung injury and for the treatment of cancer and methods of using same” (Duke University, priority 2019, dated 2025):

Tests used:
[1] = tested on: Basal cells (bronchospheres); test: bronchosphere 3D Matrigel culture assay; type: cell-based, human; details: for SOX2 (basal cell marker) expression, immunoblot / acetylated α-tubulin (ciliated cell marker) expression, immunoblot: bronchosphere lysates; for bronchosphere growth: basal cell proliferation and differentiation: treated three days starting two days after plating; for Ki67 (proliferation marker) protein expression: vs untreated cells
Procedure: The effect of Abl kinase inhibition on the development of bronchospheres in a 3D Matrigel culture assay was also evaluated. Basal cells were cultured in Matrigel at passage 1 and treated with vehicle control, the Abl kinase inhibitor, GNF5, or the Abl kinase activator, DPH, for three days starting two days after plating the cells.

[2] = tested on: Kras G12D/+; p53 -/- driven lung tumors; type: in vivo, mouse; details: GNF5 b.i.d.; docetaxel at sub-therapeutic dose; vehicle four-fold increase
[3] = tested on: mice exposed to S. aureus; test: mouse model of pneumonia induced by nasal insufflation of S. aureus; type: in vivo
Procedure: Bacteria. S. aureus (Ssp. aureus, No. 25923; American Type Culture Collection) was grown as previously described (Suliman H B et al. (2017) Mitochondrial quality control in alveolar epithelial cells damaged by S. aureus pneumonia in mice. American journal of physiology. Lung cellular and molecular physiology 313(4):L699-L709). Dilutions of 5×10^8 CFU were used for mouse experiments, and dilutions of 1×10^8 CFU were used for cell culture experiments. S. pneumoniae (serotype 19, No. 49619; American Type Culture Collection) was grown as previously described (Gomez J C, et al. (2016) Journal of immunology 197(7):2864-2879). Dilutions of 6×10^5 CFU were used for mouse experiments.
CC10 (Scgb1a1)-CreERT; Rosa26R-CAG-farnesylated GFP (Rosa26-fGFP) and SPC (Sftpc)-CreERT2; Rosa26-tdTomato mice were kindly provided by Dr. Mark Onaitis and generated by Dr. Brigid Hogan at Duke University and have been previously described (Rawlins E L, et al. (2009) Cell stem cell 4(6):525-534, Xu X, et al. (2012) Proc Natl Acad Sci USA 109(13):4910-4915). These mice were crossed with Abl1^flox/flox mice (Moresco E M, et al. (2005) J Neurosci 25(26):6105-6118) into a C57BL/6 genetic background. Sox2^tmHoch/J mice (referred to as SOX2-eGFP mice in the text) were purchased from the Jackson Laboratory. Gt(Rosa) 26Sor^tm9(EGFP/Rpl10z)Amc/J (referred to as L10-eGFP in the text) mice were purchased from the Jackson Laboratory and were crossed to CC10-CreERT; Abl1^flox/flox mice into a C57BL/6 genetic background for the TRAP experiments. To induce expression of Cre-recombinase for both TRAP experiments and lineage tracing experiments, 8to 20-week-old male and female mice were injected intraperitoneally four times every other day with 0.25 mg/g body weight Tamoxifen (Sigma-T5648) in corn oil (Spectrum-CO136). Exposure to S. aureus was initiated 15 days after the last dose of Tamoxifen. Alternatively, mice were inoculated with purified Adenovirus5-CC10-Cre virus obtained from the University of Iowa Viral Vector Core Facility and generated by Dr. Anton Berns (Netherlands Cancer Institute). 10 μL of stock virus solution was mixed in 30 μL of Minimum Essential Medium and delivered intranasally twice, three days apart, three weeks prior to induction of S. aureus pneumonia. Mice were anesthetized using 0.3 mg xylazine and […] ketamine intraperitoneally prior to intranasal inoculation with a 50 μL dilution of 5×10^8 S. aureus. The mice were monitored daily for weight loss and signs of respiratory distress and euthanized in an isofluorane chamber at days 0, 1, 2, and 3 after inoculation. All experiments were performed under the Duke University IACUC approved protocols: A098-16-04 and A130-16-06. Male and female mice at different ages (8 to 20 weeks old) were evaluated for differential response to drug (Abl kinase inhibitors and tamoxifen) and/or injury, and no significant effects of age and gender were observed.
Inhibitors. GNF5 (N-(2-Hydroxyethyl)-3-(6-(4-(trifluoromethoxy)phenylamino)pyrimidin-4-yl)benzamide) was synthesized at the Duke University's Small Molecule Synthesis Facility, and validated by LC-MS and 1H-NMR/FT-IR spectra and with cell-based assays that confirm potencies and cell signaling inhibitory activities. For in vivo experiments, GNF5 was prepared in a suspension with 0.5% methylcellulose and 0.5% Tween-80 at a concentration of 10 mg/mL, and mice were treated with either 20 mg/kg, 40 mg/kg, or 100 mg/kg b.i.d. via oral gavage.
Bronchoalveolar lavage preparation and assays. Bronchoalveolar lavage (BAL) fluid was collected immediately after euthanasia three days after exposure to S. aureus as previously described (Suliman H B, et al. (2017) Lung cellular and molecular physiology 313(4):L699-L709). Bilateral BAL was performed using two 1 mL aliquots of sterile PBS with approximately 75-80% retrieval per mouse. […]

[4] = tested on: mouse airway epithelium after SO2 injury; test: sulfur dioxide (SO2) airway injury mouse model; type: in vivo
Text: To evaluate whether the Abl kinases promote basal cell differentiation in vivo, the sulfur dioxide (SO2) injury model was employed (FIG. 22). SO2 inhalation elicits cell death and sloughing of luminal (ciliated and secretory) cells, leaving a layer of intact basal cells in the tracheobronchial region (Zuo W. et al. (2015) Nature. 517(7536):616-20). Previous studies have shown that after SO2-induced destruction and sloughing of luminal cells, the surviving basal cells (Krt5+) proliferate to generate progenitor cells (Krt8+) that accumulate and subsequently undergo differentiation into ciliated (acetylated alpha-tubulin+) and secretory (Scgb1a1+) cells (5 days to 2 weeks after injury) (Hogan B L, et al. (2014) Cell stem cell, 15(2):123-38). This well-defined model of airway injury and regeneration has been employed to identify signaling pathways that promote proliferation and differentiation of the lung epithelium after injury (Hogan B L, et al. (2014) Cell stem cell, 15(2):123-38, Tadokoro T, et al., (2014) Proceedings of the National Academy of Sciences of the U.S.A. 111(35):E3641-9).
To distinguish between protective and regenerative effects of Abl kinase inhibition, the expression of various proliferation and differentiation markers in the mouse trachea after injury was evaluated.
Next, whether Abl kinase inhibition promotes basal cell differentiation to Krt8+ cells by affecting Yap1 signaling was investigated. Three days after SO2 injury, mouse tracheas were harvested and evaluated for Yap1 protein expression by immunofluorescence.

Abl kinases = details: Zhang J. et al. (2010) Nature 463:501-506; cited from earlier work
[5] = tested on: primary human bronchial epithelial cells (HBECs); test: basal cell differentiation of primary HBECs in air-liquid interface (ALI) cultures; type: cell-based; details: vs vehicle
Text: Cell Culture. Primary human bronchial epithelial cells were isolated as previously described (Fulcher M L & Randell S H (2013) Methods Mol Biol 945:109-121) and passage 1 cells were derived from human lungs unsuitable for transplantation from non-smoker organ donors without pre-existing lung disease under protocol #03-1396 approved by the University of North Carolina at Chapel Hill Biomedical Institutional Review Board. Informed consent was obtained from authorized representatives of all organ donors. 30,000 cells were plated into each well of 6.5 mm polyester inserts containing 0.4 μm pores (Sigma-CLS3470) coated with Type IV human placenta collagen (Sigma-C7521). 100 μl of ALI medium was added to the insert and 600 μl of ALI medium was added to the well at the time of plating. At Day 3, ALI medium from the insert was removed while that in the well was changed daily for 28 days. At Day 28, the inserts containing the cells were removed from their wells, washed with PBS, and incubated at 37° C. for 30 minutes with 1×10^8 CFU S. aureus. Cells were then washed three times with PBS and returned to wells containing 600 μl of ALI medium to regrow. Cells were harvested at multiple time points up to five days after injury for protein or RNA extraction. All cultures were maintained at 37° C. in humidified air containing 5% CO2.
First, the role of Abl kinases in basal cell differentiation in primary human bronchial epithelial cells (HBECs) in air-liquid interface (ALI) cultures was examined. Basal cells were isolated from human donor lungs and plated on polyester transwell inserts at passage 1. Once the cells were 100% confluent (3-4 days after plating), media from the top chamber of the transwell insert was removed to promote differentiation of the basal cells into a pseudostratified ciliated epithelium (FIG. 19A). […] Among these are acetylated α-tubulin and SNTN (ciliated cell marker) and SCGB3A2 (secretory cell marker) (FIG. 19C).
To identify whether Abl kinase inhibition promotes early (Krt5+ cells→Krt8+ cells) or late (Krt8+→acetylated α-tubulin or Scgb1a1+ cells) differentiation, a time course experiment in primary HBEC ALI cultures was conducted. Primary HBECs were plated on polyester transwell inserts and treated with vehicle control or GNF5 24 hours after plating.

Primary HBECs [6] = test: primary HBECs pre-treated with Abl kinase inhibitor before exposure to S. aureus, Western blot; type: cell-based, human; details: pre-treated 24 hours prior to exposure to S. aureus
Text: Cell Culture. Primary human bronchial epithelial cells were isolated as previously described (Fulcher M L & Randell S H (2013) Methods Mol Biol 945:109-121) and passage 1 cells were derived from human lungs unsuitable for transplantation from non-smoker organ donors without pre-existing lung disease under protocol #03-1396 approved by the University of North Carolina at Chapel Hill Biomedical Institutional Review Board. Informed consent was obtained from authorized representatives of all organ donors. 30,000 cells were plated into each well of 6.5 mm polyester inserts containing 0.4 μm pores (Sigma-CLS3470) coated with Type IV human placenta collagen (Sigma-C7521). 100 μl of ALI medium was added to the insert and 600 μl of ALI medium was added to the well at the time of plating. At Day 3, ALI medium from the insert was removed while that in the well was changed daily for 28 days. At Day 28, the inserts containing the cells were removed from their wells, washed with PBS, and incubated at 37° C. for 30 minutes with 1×10^8 CFU S. aureus. Cells were then washed three times with PBS and returned to wells containing 600 μl of ALI medium to regrow. […]
Immunoblotting. […] Protein was quantified, and equal amounts of protein was separated by SDS-polyacrylamide gel electrophoresis (BioRad-1610183) and transferred onto 0.2 μm pore nitrocellulose membranes. […]

Primary HBECs [7] = test: transepithelial electrical resistance assay in ALI cultures of primary HBECs; type: cell-based, human; details: vs vehicle control-treated cells
Text: Thus, inhibition of the Abl kinases in 3D ALI cultures of primary HBECs promotes basal cell differentiation and enhances barrier function.

[8] = day 3 post-infection, treatment started 24 hours after injury (Post)

O=C1NC(=O)C(c2cn(-c3ccccc3)nc2-c2ccc(F)cc2)N1 (stereo not drawn) [DPH]
SOX2 (basal cell marker) expression, immunoblot [1]: increased expression of the basal cell marker, SOX2 | acetylated α-tubulin (ciliated cell marker) expression, immunoblot [1]: decreased expression of acetylated α-tubulin | bronchosphere growth: basal cell proliferation and differentiation [1]: reduced bronchosphere growth and differentiation

O=C(NCCO)c1cccc(-c2cc(Nc3ccc(OC(F)(F)F)cc3)ncn2)c1 [GNF5, N-(2-Hydroxyethyl)-3-(6-(4-(trifluoromethoxy)phenylamino)pyrimidin-4-yl)benzamide]
change in tumor size over a two-week period (μCT) [2]: two-fold increase in tumor size | activity and appearance of mice ([3]; 24 h after injury, vs vehicle control-treated mice): active and exhibited a healthy appearance | lung injury in lung tissue sections (H&E) ([3]; 72 hours post-infection, treatment started 1 h after insufflation): significant decrease in lung injury | proportion of GFP+ (Scgb1a1 driver) SPC+ cells ([3]; CC10-CreER, Rosa26-fGFP mice, three days after injury, vs vehicle): significant increase | proportion of SOX2+ SPC+ cells expanding from bronchioles into lung parenchyma ([3]; SOX2-eGFP mice, 100 mg/kg b.i.d. oral gavage from 24 h before insufflation, three days after injury, vs vehicle): dramatic increase | alveolar damage (loss of alveolar area/volume compared to uninfected mice) ([3]; SPC-CreERT2, Rosa26-tdTomato mice, 3 days after injury, vs Abl1 wt or fl/fl mice): reduced damage | tdTomato+, RAGE+ (Type I) cells derived from tdTomato+, SPC+, RAGE- (Type II) cells ([3]; SPC-CreERT2, Rosa26-tdTomato mice, three days after injury): detected at sites of damage only in mice treated with GNF5 | proportion of tdTomato+ (Sftpc driver) RAGE+ Type I AECs ([3]; SPC-CreERT2, Rosa26-tdTomato mice, vs untreated wild-type and Abl1 knockout): increase in the proportion | SPC expression in SCGB1A1+ cells within the bronchioles ([3]; after injury): enhanced SPC expression | BAL protein concentration [3, 8]: significant reduction in protein concentration | BAL protein concentration ([3]; day 3 post-infection, treatment started 24 hours prior to injury (Pre)): significant reduction in protein concentration | recovery of alveolar epithelium (RAGE staining) ([3]; day 3 post-infection, vs control mice): recovered more rapidly | recovery of mice after injury ([3]; two doses, 1 hour and 16 hours after injury, evaluated after 24 hours, vs vehicle): sufficient to promote recovery after 24 hours | Ki67 expression in tracheal basal cells ([4]; 24 h following SO2 induced injury, vs untreated): significant increase in the expression of Ki67 | Scgb1a1+ Club cells and acetylated α-tubulin+ ciliated cells (staining) ([4]; 24 hours after SO2 exposure): mostly intact layer of secretory cells and some ciliated cells | quantification of acetylated α-tubulin+ ciliated cells in whole tracheas ([4]; 24 hours after sulfur dioxide, pre-treatment 24 hours before): protection of ciliated cells | pseudostratified epithelium in whole trachea sections (immunofluorescence) ([4]; after SO2 injury, vs untreated mice): preservation of the pseudostratified epithelium | Yap1 localization in basal cells ([4]; three days after SO2 injury): predominantly cytoplasmic localization of Yap1 | tracheal epithelium morphology (H&E) ([4]; three days after SO2 injury): stratified, columnar, ciliated epithelium that had almost completely recovered from injury | state of airway epithelium ([4]; within 24 hours after SO2 injury, pre-treated mice): mostly intact mouse airway epithelium | SOX2 (basal cell marker) expression, immunoblot [1]: decrease in the basal cell marker, SOX2 | acetylated α-tubulin (ciliated cell marker) expression, immunoblot [1]: increase in the ciliated cell marker, acetylated α-tubulin | bronchosphere growth: basal cell proliferation and differentiation [1]: promoted basal cell proliferation and differentiation | Ki67 (proliferation marker) protein expression [1]: increase in protein expression of the proliferation marker, Ki67 | selectivity versus other protein kinases (Abl kinases): does not inhibit other protein kinases | SNTN expression (RT-PCR) ([5]; 7 days after plating): increase in expression of SNTN | Krt8 expression (immunofluorescence and Western blot) ([5]; treated 24 hours after plating): significant increase in expression of Krt8

Cc1cn(-c2cc(NC(=O)c3ccc(C)c(Nc4nccc(-c5cccnc5)n4)c3)cc(C(F)(F)F)c2)cn1 [nilotinib]
lung injury ([3]; FIG. 9F, treatment 24 h after injury): significant reduction in lung injury | BAL protein concentration [3, 8]: reduction in protein in the airspace | expression of downstream transcriptional targets of YAP (Birc5, c-Myc, Cyclin D3) (Primary HBECs [6]): decreased transcript and protein expression | transepithelial electrical resistance across monolayer (Primary HBECs [7]): increased resistance | SOX2 (basal cell marker) expression, immunoblot [1]: decrease in the basal cell marker, SOX2 | acetylated α-tubulin (ciliated cell marker) expression, immunoblot [1]: increase in the ciliated cell marker, acetylated α-tubulin | Ki67 (proliferation marker) protein expression [1]: increase in protein expression of the proliferation marker, Ki67 | acetylated α-tubulin expression (3D reconstruction) ([5]; 7 days after plating): increase in expression of acetylated α-tubulin | acetylated α-tubulin protein expression (Western blot) ([5]; 7 days after plating): increase in protein expression of acetylated α-tubulin
